Measured values taken from ChEMBL document CHEMBL1153651, “Synthesis and biology of the rigidified glutamate analogue, trans-2-carboxyazetidine-3-acetic acid (t-CAA)” (Bioorg Med Chem Lett, 1996).

Legend:
[1] = molecular target: Glutamate receptor ionotropic, AMPA (Rattus norvegicus, UniProt P19490+P19491+P19492+P19493); assay: Compound was tested in vitro for binding affinity against Ionotropic glutamate receptor AMPA, using [3H]AMPA as the radioligand in rat cerebral cortical membranes.; format: cell membranes
[2] = molecular target: Glutamate receptor ionotropic, kainate 3 (Rattus norvegicus, UniProt P42264); assay: Compound was tested in vitro for binding affinity against Ionotropic glutamate receptor kainate using [3H]kainate as the radioligand.
Glutamate receptor ionotropic, kainate 3, sequence (P42264 whole entry): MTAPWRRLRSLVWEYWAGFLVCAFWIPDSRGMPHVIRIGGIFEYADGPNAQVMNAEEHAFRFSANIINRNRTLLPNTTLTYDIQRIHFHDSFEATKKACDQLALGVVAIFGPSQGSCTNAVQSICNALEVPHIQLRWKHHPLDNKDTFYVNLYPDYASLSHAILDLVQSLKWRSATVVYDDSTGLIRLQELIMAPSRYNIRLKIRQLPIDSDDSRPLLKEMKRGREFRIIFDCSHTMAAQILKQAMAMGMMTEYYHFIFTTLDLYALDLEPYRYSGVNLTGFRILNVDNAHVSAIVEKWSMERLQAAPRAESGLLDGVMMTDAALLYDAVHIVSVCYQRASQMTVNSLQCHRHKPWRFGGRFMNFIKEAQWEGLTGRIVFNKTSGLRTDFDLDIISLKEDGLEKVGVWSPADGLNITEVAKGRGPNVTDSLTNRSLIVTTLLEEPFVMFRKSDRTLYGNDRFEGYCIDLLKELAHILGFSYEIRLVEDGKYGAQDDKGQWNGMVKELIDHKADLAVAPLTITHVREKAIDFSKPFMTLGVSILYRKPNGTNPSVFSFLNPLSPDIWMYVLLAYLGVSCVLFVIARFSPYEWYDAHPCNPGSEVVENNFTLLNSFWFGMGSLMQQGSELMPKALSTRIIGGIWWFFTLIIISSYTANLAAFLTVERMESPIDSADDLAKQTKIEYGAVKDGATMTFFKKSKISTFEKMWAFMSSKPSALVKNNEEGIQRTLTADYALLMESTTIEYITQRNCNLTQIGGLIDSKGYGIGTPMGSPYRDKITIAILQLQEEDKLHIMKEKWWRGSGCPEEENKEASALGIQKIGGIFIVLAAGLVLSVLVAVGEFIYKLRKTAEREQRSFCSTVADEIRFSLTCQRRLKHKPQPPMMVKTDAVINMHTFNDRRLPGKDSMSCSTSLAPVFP

[3] = molecular target: Metabotropic glutamate receptor 4 (Rattus norvegicus, UniProt P31423); assay: Compound was tested in vitro for binding affinity against mGluR4a metabotropic glutamate receptor, using [3H]L-AP4 as the radioligand.
[4] = molecular target: Metabotropic glutamate receptor 1 (Homo sapiens, UniProt Q13255); assay: Compound was tested for its agonist activity against mGluR1a receptor in CHO cells.; format: functional, cell-based, Cricetulus griseus
Glutamate receptor 1 = Glutamate receptor 1 (Rattus norvegicus, UniProt P19490); assay: Compound was tested in vitro for binding affinity against Ionotropic glutamate receptor AMPA, using [3H]TCP as the radioligand.
[5] = molecular target: T1, Metabotropic glutamate receptor 6 (Homo sapiens, UniProt O15303); assay: Compound was tested for its antagonist activity against mGluR 6 receptor in CHO cells.; format: functional, cell-based, Cricetulus griseus
T1 sequence (O15303 whole entry): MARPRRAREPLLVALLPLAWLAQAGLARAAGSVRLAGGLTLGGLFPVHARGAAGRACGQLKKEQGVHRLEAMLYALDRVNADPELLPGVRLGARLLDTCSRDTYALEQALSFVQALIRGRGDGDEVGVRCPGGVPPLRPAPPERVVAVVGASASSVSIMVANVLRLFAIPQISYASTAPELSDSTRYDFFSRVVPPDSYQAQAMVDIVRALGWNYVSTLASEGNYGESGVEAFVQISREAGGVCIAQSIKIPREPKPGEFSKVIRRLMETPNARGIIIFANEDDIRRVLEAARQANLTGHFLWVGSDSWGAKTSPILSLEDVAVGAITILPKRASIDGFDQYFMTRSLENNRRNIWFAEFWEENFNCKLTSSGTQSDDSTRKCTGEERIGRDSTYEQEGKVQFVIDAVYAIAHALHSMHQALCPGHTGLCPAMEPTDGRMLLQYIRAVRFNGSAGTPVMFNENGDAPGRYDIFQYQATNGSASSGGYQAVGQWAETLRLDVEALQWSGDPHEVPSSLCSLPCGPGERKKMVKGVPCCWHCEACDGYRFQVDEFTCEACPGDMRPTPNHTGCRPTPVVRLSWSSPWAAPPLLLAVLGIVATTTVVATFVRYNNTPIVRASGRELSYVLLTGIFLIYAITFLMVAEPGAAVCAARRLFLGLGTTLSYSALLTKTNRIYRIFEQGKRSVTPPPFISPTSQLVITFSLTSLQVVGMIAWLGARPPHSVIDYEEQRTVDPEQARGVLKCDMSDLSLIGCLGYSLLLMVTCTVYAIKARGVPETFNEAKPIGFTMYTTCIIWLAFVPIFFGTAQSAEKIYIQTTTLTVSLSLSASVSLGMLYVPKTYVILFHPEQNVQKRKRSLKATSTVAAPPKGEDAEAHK

Rattus norvegicus [6] = species on record: Rattus norvegicus; assay: Compound was tested in vitro for binding affinity against calcium chloride dependent glutamate uptake site, using [3H]L-AP4 as the radioligand in rat cortical membranes.; format: functional
[7] = molecular target: T2, Metabotropic glutamate receptor 2 (Homo sapiens, UniProt Q14416); assay: Compound was tested for its agonist activity against mGluR 2 receptor in CHO cells.; format: functional, cell-based, Cricetulus griseus
Target sequence in this assay (Q14416 whole entry): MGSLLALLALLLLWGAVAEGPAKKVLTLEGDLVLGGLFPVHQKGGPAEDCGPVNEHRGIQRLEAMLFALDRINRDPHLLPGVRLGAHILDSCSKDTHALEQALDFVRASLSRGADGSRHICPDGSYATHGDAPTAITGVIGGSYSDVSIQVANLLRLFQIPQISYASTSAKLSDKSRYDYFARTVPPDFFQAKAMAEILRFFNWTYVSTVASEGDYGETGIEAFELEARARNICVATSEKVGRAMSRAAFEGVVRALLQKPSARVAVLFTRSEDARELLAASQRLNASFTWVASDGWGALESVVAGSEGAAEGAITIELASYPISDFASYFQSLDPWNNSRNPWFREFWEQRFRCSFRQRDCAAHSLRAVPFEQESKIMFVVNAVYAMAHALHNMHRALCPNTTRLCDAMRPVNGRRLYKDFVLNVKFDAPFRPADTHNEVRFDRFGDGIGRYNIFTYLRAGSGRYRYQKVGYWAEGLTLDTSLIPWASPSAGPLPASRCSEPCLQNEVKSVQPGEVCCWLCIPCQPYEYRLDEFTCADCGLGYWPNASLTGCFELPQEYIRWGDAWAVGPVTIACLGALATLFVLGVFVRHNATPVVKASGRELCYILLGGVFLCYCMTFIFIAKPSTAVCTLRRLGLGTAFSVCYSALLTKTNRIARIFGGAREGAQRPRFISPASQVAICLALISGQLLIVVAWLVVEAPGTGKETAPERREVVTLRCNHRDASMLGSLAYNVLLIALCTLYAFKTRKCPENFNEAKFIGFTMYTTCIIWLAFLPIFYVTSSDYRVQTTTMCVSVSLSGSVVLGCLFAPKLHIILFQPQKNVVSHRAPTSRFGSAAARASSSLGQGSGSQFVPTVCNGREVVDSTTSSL

[8] = molecular target: T3, Metabotropic glutamate receptor 5 (Homo sapiens, UniProt P41594); assay: Compound was tested for its agonist activity against mGluR 5a receptor in CHO cells; format: functional, cell-based; details: Cricetulus griseus
Target sequence in this assay (P41594 21-1212 limits assumed): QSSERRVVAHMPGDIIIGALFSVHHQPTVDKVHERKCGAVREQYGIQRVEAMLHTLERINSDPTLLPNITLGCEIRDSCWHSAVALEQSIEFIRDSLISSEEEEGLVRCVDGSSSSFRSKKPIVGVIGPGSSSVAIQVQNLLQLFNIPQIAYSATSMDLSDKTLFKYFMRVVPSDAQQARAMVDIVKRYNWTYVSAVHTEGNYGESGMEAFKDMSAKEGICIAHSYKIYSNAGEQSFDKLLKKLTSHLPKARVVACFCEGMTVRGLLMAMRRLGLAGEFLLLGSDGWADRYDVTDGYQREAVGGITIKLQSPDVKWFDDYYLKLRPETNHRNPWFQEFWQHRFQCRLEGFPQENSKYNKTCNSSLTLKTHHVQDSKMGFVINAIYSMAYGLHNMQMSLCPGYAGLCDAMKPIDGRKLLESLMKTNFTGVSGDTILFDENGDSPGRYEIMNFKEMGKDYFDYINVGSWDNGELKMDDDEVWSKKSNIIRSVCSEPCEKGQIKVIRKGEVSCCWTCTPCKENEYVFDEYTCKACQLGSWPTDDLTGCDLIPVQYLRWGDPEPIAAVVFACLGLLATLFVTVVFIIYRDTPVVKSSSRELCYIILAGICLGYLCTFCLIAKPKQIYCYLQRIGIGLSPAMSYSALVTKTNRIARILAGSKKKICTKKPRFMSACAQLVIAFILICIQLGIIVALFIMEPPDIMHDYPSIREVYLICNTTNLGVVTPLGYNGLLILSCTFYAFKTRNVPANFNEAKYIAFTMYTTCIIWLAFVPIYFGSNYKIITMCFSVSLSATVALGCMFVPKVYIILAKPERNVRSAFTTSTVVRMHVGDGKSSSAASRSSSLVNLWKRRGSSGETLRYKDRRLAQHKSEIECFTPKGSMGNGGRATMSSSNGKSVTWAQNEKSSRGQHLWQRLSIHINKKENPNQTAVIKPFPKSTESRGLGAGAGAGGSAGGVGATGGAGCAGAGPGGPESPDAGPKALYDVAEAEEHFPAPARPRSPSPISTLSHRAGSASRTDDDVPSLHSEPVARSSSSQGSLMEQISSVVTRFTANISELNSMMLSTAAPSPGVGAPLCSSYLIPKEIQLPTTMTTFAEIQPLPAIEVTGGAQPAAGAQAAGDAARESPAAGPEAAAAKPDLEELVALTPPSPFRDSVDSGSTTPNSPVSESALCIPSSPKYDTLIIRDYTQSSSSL

[9] = molecular target: T2, Metabotropic glutamate receptor 2; assay: Compound was tested for its antagonist activity against mGluR 2 receptor in CHO cells.; format: functional, cell-based, Cricetulus griseus
Target sequence in this assay (Q14416 whole entry): as the sequence (Q14416 whole entry) above

[10] = molecular target: T2, Metabotropic glutamate receptor 2; assay: Compound was tested for its agonist activity against mGluR 2 receptor in CHO cells; format: functional, cell-based; details: Cricetulus griseus
Target sequence in this assay (Q14416 19-872 limits assumed): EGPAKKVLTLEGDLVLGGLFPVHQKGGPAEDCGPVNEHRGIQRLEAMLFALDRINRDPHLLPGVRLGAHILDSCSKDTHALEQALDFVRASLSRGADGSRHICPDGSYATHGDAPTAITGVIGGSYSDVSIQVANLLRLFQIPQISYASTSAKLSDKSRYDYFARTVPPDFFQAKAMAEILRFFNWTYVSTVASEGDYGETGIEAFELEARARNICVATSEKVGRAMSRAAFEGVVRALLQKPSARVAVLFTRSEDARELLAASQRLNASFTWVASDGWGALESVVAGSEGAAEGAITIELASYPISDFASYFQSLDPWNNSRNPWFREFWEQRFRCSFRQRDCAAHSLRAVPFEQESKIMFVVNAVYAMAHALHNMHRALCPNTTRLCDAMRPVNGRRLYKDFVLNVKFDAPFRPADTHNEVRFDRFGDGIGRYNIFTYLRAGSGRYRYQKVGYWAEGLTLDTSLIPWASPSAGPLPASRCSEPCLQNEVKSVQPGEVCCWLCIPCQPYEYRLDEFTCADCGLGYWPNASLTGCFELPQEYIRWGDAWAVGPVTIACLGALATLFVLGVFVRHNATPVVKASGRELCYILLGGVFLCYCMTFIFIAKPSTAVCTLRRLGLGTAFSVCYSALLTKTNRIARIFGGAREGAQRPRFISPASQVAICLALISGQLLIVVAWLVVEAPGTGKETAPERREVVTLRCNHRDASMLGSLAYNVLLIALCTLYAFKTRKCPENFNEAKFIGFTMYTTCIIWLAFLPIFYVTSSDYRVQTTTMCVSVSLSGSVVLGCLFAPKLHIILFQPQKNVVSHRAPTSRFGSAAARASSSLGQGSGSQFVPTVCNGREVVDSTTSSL

Glutamate NMDA receptor = assay: Compound was tested in vitro for binding affinity against NMDA receptor, using [3H]CPP as the radioligand in rat cerebral cortical membranes.; format: cell membranes
[11] = molecular target: T1, Metabotropic glutamate receptor 6; assay: Compound was tested for its agonist activity against mGluR 6 receptor in CHO cells; format: functional, cell-based; details: Cricetulus griseus
Rattus norvegicus [12] = species on record: Rattus norvegicus; assay: Compound was tested in vitro for binding affinity against sodium dependent [3H]glu-uptake into rat cortical synaptosomes, using [3H]-glutamate as the radioligand.; format: functional; details: Brain
[13] = molecular target: T1, Metabotropic glutamate receptor 6; assay: Compound was tested for its agonist activity against mGluR 6 receptor in CHO cells.; format: functional, cell-based, Cricetulus griseus
[14] = molecular target: Metabotropic glutamate receptor 1 (Rattus norvegicus, UniProt P23385); assay: Compound was tested in vitro for binding affinity against mGluR1a metabotropic glutamate receptor, using [3H]glutamate as the radioligand.
[15] = molecular target: T3, Metabotropic glutamate receptor 5; assay: Compound was tested for its agonist activity against mGluR 5a receptor in CHO cells.; format: functional, cell-based, Cricetulus griseus

`O=C(O)C[C@H]1CN[C@@H]1C(=O)O` gave an IC50 [1] of 13 µM, an IC50 [2] of 0.7 µM and an IC50 [3] of 315 µM. The EC50 [4] was 210 µM, the IC50 (Glutamate receptor 1) was > 660 µM and the IC50 [5] was > 300 µM. The IC50 (Rattus norvegicus [6]) was 33 µM, the EC50 [7] was > 600 µM and the Max response [8] was 95%. For the same compound, the IC50 [9] was > 600 µM, the Max response [10] was 0% and the inhibition ([10]; concentration not given here) was 40%. It also gave an IC50 (Glutamate NMDA receptor) of 49 µM, a Max response [11] of 17% and an inhibition ([11]; concentration not given here) of 0%. The IC50 (Rattus norvegicus [12]) was 5 µM, the IC50 [13] was > 300 µM and the IC50 [14] was 12 µM. For the same compound, the EC50 [15] was 105 µM.
